From patent US20220273683A1, “BORON-CONTAINING SMALL MOLECULES” (Bill & Melinda Gates Foundation, priority 2016, published 2022)
≈ marks a conversion by molar mass, not a printed value.

Columns and labels:
[1] = tested on: Staphylococcus aureus, MRSA (ATCC 33591); experiment: Antibacterial MIC assay (microbroth dilution, CLSI); assay type: cell-based; settings: 35° C., 16-20 hours
Excerpt: (§1) All MIC testing of bacteria followed the Clinical and Laboratory Standards Institute (CLSI) guidelines for antimicrobial testing of aerobic bacteria (Methods for Dilution Antimicrobial Susceptibility Tests for Bacteria that Grow Aerobically; Approved Standard—Tenth Edition, M07-A10; Performance Standards for Antimicrobial Susceptibility Testing; Twenty-fifth Informational Supplement, M100-S25).
(§2) Briefly, the microbroth dilution MIC method was used to quantitatively measure the in vitro antibacterial activity of a compound against a given bacterial isolate. The following bacterial strains were evaluated: Staphylococcus aureus, MRSA (ATCC 33591) and Streptococcus pneumoniae (ATCC 49619). Bacteria were grown in cation-adjusted Mueller-Hinton broth, with additions as required per species growth requirements (e.g. 3% lysed horse blood for fastidious organisms such as S. pneumoniae). A direct colony suspension in saline was prepared from colonies on an overnight agar plate to achieve a turbidity equivalent to 0.5 McFarland standard, which was subsequently diluted into the assay plate to achieve 5×10^5 CFU/mL. Assays plates were prepared by 2-fold dilution of compound across the plate and included a positive growth control.

[2] = tested on: Streptococcus pneumoniae (ATCC 49619); experiment: as above; assay type: cell-based; settings: 35° C., 16-20 hours; for MIC Streptococcus pneumoniae (ATCC 49619): 3% lysed horse blood
Excerpt: as §1, §2

| SMILES | MIC Staphylococcus aureus, MRSA (ATCC 33591) [1] | MIC Streptococcus pneumoniae (ATCC 49619) [2] | MIC ([1]; Staphylococcus aureus) [µg/mL] | MIC ([2]; Streptococcus pneumoniae, ATCC49619, 3% lysed horse blood) [µg/mL] |
| --- | --- | --- | --- | --- |
| C[C@@H]1CC[C@@]23CCC(=O)[C@H]2[C@]1(C)[C@H](OC(=O)COc1ccc2c(c1F)B(O)OC2)C[C@@](C)(CCC(=O)N1CCC(O)C1)[C@@H](O)[C@@H]3C (stereo partly drawn) [Compound 7, (3aR,4R,5R,7R,8S,9R,9aS,12R)-8-hydroxy-7-(3-(3-hydroxypyrrolidin-1-yl)-3-oxopropyl)-4,7,9,12-tetramethyl-3-oxodecahydro-4,9a-propanocyclopenta[8]annulen-5-yl2-((7-fluoro-1-hydroxy-1,3-dihydrobenzo[c][1,2]oxaborol-6-yl)oxy)acetate] | C (4-32 is C) | B (0.5-2 is B) | – | – |
| C[C@@H]1CC[C@@]23CCC(=O)[C@H]2[C@]1(C)[C@H](OC(=O)COc1ccc2c(c1F)B(O)OC2)C[C@@](C)(CCC(=O)N1CC[C@H](O)C1)[C@@H](O)[C@@H]3C [Compound 8, (3aR,4R,5R,7R,8S,9R,9aS,12R)-8-hydroxy-7-(3-((S)-3-hydroxypyrrolidin-1-yl)-3-oxopropyl)-4,7,9,12-tetramethyl-3-oxodecahydro-4,9a-propanocyclopenta[8]annulen-5-yl2-((7-fluoro-1-hydroxy-1,3-dihydrobenzo[c][1,2]oxaborol-6-yl)oxy)acetate] | C (4-32 is C) | B (0.5-2 is B) | – | – |
| C[C@@H]1CC[C@@]23CCC(=O)[C@H]2[C@]1(C)[C@H](OC(=O)COc1ccc2c(c1F)B(O)OC2)C[C@@]1(C)CC(O)O[C@H]1[C@@H]3C (stereo partly drawn) [Compound 9, (3aS,5R,6R,6aR,9aS,10R,10aS,13R)-2-hydroxy-3a,6,10,13-tetramethyl-7-oxododecahydro-6,9a-propanocyclopenta[6,7]cycloocta[1,2-b]furan-5-yl2-((7-fluoro-1-hydroxy-1,3-dihydrobenzo[c][1,2]oxaborol-6-yl)oxy)acetate] | C (4-32 is C) | C (4-32 is C) | – | – |
| C[C@@H]1CC[C@@]23CCC(=O)[C@H]2[C@]1(C)[C@H](OC(=O)COc1ccc2c(c1F)B(O)OC2)C[C@@](C)(Cc1ccccc1)[C@@H](O)[C@@H]3C [Compound 10, (3aR,4R,5R,7R,8S,9R,9aS,12R)-7-benzyl-8-hydroxy-4,7,9,12-tetramethyl-3-oxodecahydro-4,9a-propanocyclopenta[8]annulen-5-yl2-((7-fluoro-1-hydroxy-1,3-dihydrobenzo[c][1,2]oxaborol-6-yl)oxy)acetate] | A (MIC of ≤0.25 is A) | B (0.5-2 is B) | – | – |
| C[C@@H]1CC[C@@]23CCC(=O)[C@H]2[C@]1(C)[C@H](OC(=O)COc1ccc2c(c1F)B(O)OC2)C[C@@](C)(CCl)[C@@H](O)[C@@H]3C [Compound 11, (3aR,4R,5R,7R,8S,9R,9aS,12R)-7-(chloromethyl)-8-hydroxy-4,7,9,12-tetramethyl-3-oxodecahydro-4,9a-propanocyclopenta[8]annulen-5-yl2-((7-fluoro-1-hydroxy-1,3-dihydrobenzo[c][1,2]oxaborol-6-yl)oxy)acetate] | A (MIC of ≤0.25 is A) | B (0.5-2 is B) | – | – |
| C[C@@H]1CC[C@@]23CCC(=O)[C@H]2[C@]1(C)[C@H](OC(=O)COc1ccc2c(c1F)B(O)OC2)C[C@@](C)(/C=C/C(N)=O)[C@@H](O)[C@@H]3C [Compound 14, (3aR,4R,5R,7S,8S,9R,9aS,12R)-7-((E)-3-amino-3-oxoprop-1-en-1-yl)-8-hydroxy-4,7,9,12-tetramethyl-3-oxodecahydro-4,9a-propanocyclopenta[8]annulen-5-yl2-((7-fluoro-1-hydroxy-1,3-dihydrobenzo[c][1,2]oxaborol-6-yl)oxy)acetate] | B (0.5-2 is B) | B (0.5-2 is B) | – | – |
| C[C@@H]1CC[C@@]23CCC(=O)[C@H]2[C@]1(C)[C@H](OC(=O)COc1ccc2c(c1F)B(O)OC2)C[C@@](C)(/C=C/C(=O)NNC(=O)OC(C)(C)C)[C@@H](O)[C@@H]3C [Compound 17, tert-butyl 2-((E)-3-((3aR,4R,5R,7S,8S,9R,9aS,12R)-5-(2-((7-fluoro-1-hydroxy-1,3-dihydrobenzo[c][1,2]oxaborol-6-yl)oxy)acetoxy)-8-hydroxy-4,7,9,12-tetramethyl-3-oxodecahydro-4,9a-propanocyclopenta[8]annulen-7-yl)acryloyl)hydrazine-1-carboxylate] | – | – | 4 to 32 (≈ 5.83 to 46.6 µM) | 0.5 to 2 (≈ 0.728 to 2.91 µM) |

Continued, in another order:

| MIC Staphylococcus aureus, MRSA (ATCC 33591) [1] | MIC Streptococcus pneumoniae (ATCC 49619) [2] | SMILES | MIC ([1]; Staphylococcus aureus) [µg/mL] | MIC ([2]; Streptococcus pneumoniae, ATCC49619, 3% lysed horse blood) [µg/mL] |
| --- | --- | --- | --- | --- |
| B (0.5-2 is B) | B (0.5-2 is B) | CNC(=O)/C=C/[C@]1(C)C[C@@H](OC(=O)COc2ccc3c(c2F)B(O)OC3)[C@]2(C)[C@H](C)CC[C@]3(CCC(=O)[C@H]32)[C@@H](C)[C@@H]1O [Compound 15, (3aR,4R,5R,7S,8S,9R,9aS,12R)-8-hydroxy-4,7,9,12-tetramethyl-7-((E)-3-(methylamino)-3-oxoprop-1-en-1-yl)-3-oxodecahydro-4,9a-propanocyclopenta[8]annulen-5-yl2-((7-fluoro-1-hydroxy-1,3-dihydrobenzo[c][1,2]oxaborol-6-yl)oxy)acetate] | – | – |
| C (4-32 is C) | B (0.5-2 is B) | CONC(=O)/C=C/[C@]1(C)C[C@@H](OC(=O)COc2ccc3c(c2F)B(O)OC3)[C@]2(C)[C@H](C)CC[C@]3(CCC(=O)[C@H]32)[C@@H](C)[C@@H]1O [Compound 16, (3aR,4R,5R,7S,8S,9R,9aS,12R)-8-hydroxy-7-((E)-3-(methoxyamino)-3-oxoprop-1-en-1-yl)-4,7,9,12-tetramethyl-3-oxodecahydro-4,9a-propanocyclopenta[8]annulen-5-yl2-((7-fluoro-1-hydroxy-1,3-dihydrobenzo[c][1,2]oxaborol-6-yl)oxy)acetate] | – | – |
| C (4-32 is C) | B (0.5-2 is B) | C[C@@H]1CC[C@@]23CCC(=O)[C@H]2[C@]1(C)[C@H](OC(=O)COc1ccc2c(c1F)B(O)OC2)C[C@@](C)(/C=C/C(=O)NN)[C@@H](O)[C@@H]3C [Compound 18, (3aR,4R,5R,7S,8S,9R,9aS,12R)-7-((E)-3-hydrazinyl-3-oxoprop-1-en-1-yl)-8-hydroxy-4,7,9,12-tetramethyl-3-oxodecahydro-4,9a-propanocyclopenta[8]annulen-5-yl2-((7-fluoro-1-hydroxy-1,3-dihydrobenzo[c][1,2]oxaborol-6-yl)oxy)acetate] | – | – |
| A (MIC of ≤0.25 is A) | B (0.5-2 is B) | CC[C@]1(C)C[C@@H](OC(=O)COc2ccc3c(c2F)B(O)OC3)[C@]2(C)[C@H](C)CC[C@]3(CCC(=O)[C@H]32)[C@@H](C)[C@@H]1O [Compound 19, (3aR,4R,5R,7R,8S,9R,9aS,12R)-7-ethyl-8-hydroxy-4,7,9,12-tetramethyl-3-oxodecahydro-4,9a-propanocyclopenta[8]annulen-5-yl2-((7-fluoro-1-hydroxy-1,3-dihydrobenzo[c][1,2]oxaborol-6-yl)oxy)acetate] | – | – |
| A (MIC of ≤0.25 is A) | B (0.5-2 is B) | C=CC[C@]1(C)C[C@@H](OC(=O)COc2ccc3c(c2F)B(O)OC3)[C@]2(C)[C@H](C)CC[C@]3(CCC(=O)[C@H]32)[C@@H](C)[C@@H]1O [Compound 21, (3aR,4R,5R,7R,8S,9R,9aS,12R)-7-allyl-8-hydroxy-4,7,9,12-tetramethyl-3-oxodecahydro-4,9a-propanocyclopenta[8]annulen-5-yl2-((7-fluoro-1-hydroxy-1,3-dihydrobenzo[c][1,2]oxaborol-6-yl)oxy)acetate] | – | – |
